Test results: the NIST ThermoML archive (doi:10.1021/acs.jced.7b00964)
± gives the expanded uncertainty stated by the source.

Conditions: Liquid, Closed cell (Static) method

With CC(C)C [2-methylpropane] the “vapor or sublimation pressure” value (243.15 K) was 46.7 ± 1 kPa, the “vapor or sublimation pressure” value (253.15 K) was 72.6 ± 1 kPa and the “vapor or sublimation pressure” value (263.15 K) was 108.7 ± 1 kPa. For the same compound, the “vapor or sublimation pressure” value (273.15 K) was 157.4 ± 1 kPa and the “vapor or sublimation pressure” value (283.15 K) was 221 ± 1.1 kPa.

With F/C=C/C(F)(F)F [trans-1,3,3,3-tetrafluoropropene] the “vapor or sublimation pressure” value (243.15 K) was 61 ± 1 kPa, the “vapor or sublimation pressure” value (253.15 K) was 97 ± 1 kPa and the “vapor or sublimation pressure” value (263.15 K) was 147.7 ± 1 kPa. For the same compound, the “vapor or sublimation pressure” value (273.15 K) was 216.4 ± 1.1 kPa and the “vapor or sublimation pressure” value (283.15 K) was 308.3 ± 1.1 kPa.

With FC(F)(F)I [trifluoroiodomethane] the “vapor or sublimation pressure” value (243.15 K) was 71.7 ± 1 kPa, the “vapor or sublimation pressure” value (253.15 K) was 109 ± 1 kPa and the “vapor or sublimation pressure” value (263.15 K) was 160.4 ± 1 kPa. For the same compound, the “vapor or sublimation pressure” value (273.15 K) was 228.2 ± 1.1 kPa and the “vapor or sublimation pressure” value (283.15 K) was 316.3 ± 1.1 kPa.
